Results as given in ChEMBL document CHEMBL3616392, “Design, synthesis and biological evaluation of novel tetrahydroisoquinoline derivatives as potential PDE4 inhibitors” (Bioorg Med Chem Lett, 2015).

How the values were obtained:
[1] = target: 3',5'-cyclic-AMP phosphodiesterase 4B (Homo sapiens, UniProt Q07343); test: Inhibition of PDE4B isolated from human U937 cells using [3H]-cAMP as substrate after 30 mins; format: cell-free, U-937
[2] = target: 3',5'-cyclic-AMP phosphodiesterase 4D (Homo sapiens) (UniProt Q08499); test: Inhibition of PDE4D isolated from human U937 cells using [3H]-cAMP as substrate at 20 uM after 30 mins; format: cell-free; conditions: U-937
3',5'-cyclic-AMP phosphodiesterase 4D (Homo sapiens), sequence (Q08499 whole entry): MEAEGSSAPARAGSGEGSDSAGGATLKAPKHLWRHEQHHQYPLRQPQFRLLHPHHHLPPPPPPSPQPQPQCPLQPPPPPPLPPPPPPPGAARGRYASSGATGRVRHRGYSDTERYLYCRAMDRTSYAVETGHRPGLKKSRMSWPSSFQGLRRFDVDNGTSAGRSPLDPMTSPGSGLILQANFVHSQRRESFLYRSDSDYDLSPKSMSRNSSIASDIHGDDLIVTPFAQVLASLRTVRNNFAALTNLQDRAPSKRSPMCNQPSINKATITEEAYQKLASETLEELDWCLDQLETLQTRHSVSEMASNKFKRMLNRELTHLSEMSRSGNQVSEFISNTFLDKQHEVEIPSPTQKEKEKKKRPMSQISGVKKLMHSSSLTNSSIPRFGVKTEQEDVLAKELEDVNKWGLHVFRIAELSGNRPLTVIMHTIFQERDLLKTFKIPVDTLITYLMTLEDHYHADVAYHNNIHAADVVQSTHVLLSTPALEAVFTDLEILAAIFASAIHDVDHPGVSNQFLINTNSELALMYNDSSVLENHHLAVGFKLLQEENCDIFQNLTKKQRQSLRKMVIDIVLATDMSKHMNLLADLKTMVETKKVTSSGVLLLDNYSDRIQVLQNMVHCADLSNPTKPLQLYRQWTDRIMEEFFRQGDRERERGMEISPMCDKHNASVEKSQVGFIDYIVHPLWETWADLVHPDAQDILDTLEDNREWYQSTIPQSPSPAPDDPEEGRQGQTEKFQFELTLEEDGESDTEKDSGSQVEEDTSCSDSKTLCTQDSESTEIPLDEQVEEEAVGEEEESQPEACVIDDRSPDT

3',5'-cyclic-AMP phosphodiesterase 4B, sequence (Q07343 whole entry): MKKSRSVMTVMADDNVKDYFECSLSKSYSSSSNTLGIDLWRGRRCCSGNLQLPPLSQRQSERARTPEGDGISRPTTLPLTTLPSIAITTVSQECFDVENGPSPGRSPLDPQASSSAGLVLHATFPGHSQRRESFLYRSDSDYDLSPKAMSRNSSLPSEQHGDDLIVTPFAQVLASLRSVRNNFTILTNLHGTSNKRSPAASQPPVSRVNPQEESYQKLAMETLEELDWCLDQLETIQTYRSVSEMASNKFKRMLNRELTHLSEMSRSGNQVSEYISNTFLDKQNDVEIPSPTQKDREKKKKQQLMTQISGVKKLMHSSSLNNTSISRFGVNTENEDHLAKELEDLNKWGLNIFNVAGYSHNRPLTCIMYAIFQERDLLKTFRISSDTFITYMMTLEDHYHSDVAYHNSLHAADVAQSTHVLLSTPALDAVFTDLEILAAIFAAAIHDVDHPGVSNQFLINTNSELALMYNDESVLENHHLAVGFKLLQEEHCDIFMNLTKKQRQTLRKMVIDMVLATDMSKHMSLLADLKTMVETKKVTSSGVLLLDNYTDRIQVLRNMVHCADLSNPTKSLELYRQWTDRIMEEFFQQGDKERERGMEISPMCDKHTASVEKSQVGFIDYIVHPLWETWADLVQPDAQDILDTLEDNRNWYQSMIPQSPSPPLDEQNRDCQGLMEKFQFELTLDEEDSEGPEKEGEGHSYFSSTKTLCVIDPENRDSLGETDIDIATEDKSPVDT

| Structure (SMILES) | IC50 [1] | inhibition [2] |
| --- | --- | --- |
| COc1cc2c(cc1OC1CCCC1)CN(C(=O)c1ccccc1F)CC2 | 23.3 µM |  |
| COc1cc2c(cc1OC1CCCC1)CN(C(=O)c1ccccn1)CC2 | 37.9 µM |  |
| COc1cc(C(=O)N2CCc3cc(OC)c(OC4CCCC4)cc3C2)ccc1O | 2.3 µM | 17.4% |
| COc1cc2c(cc1OC1CCCC1)CN(C(=O)[C@H]1CC[C@H](N)CC1)CC2 | > 50 µM |  |
| COc1cc2c(cc1OC1CCCC1)CN(C(=O)c1ccccc1Cl)CC2 | 15.5 µM | 15.3% |
| COc1cc2c(cc1OC1CCCC1)CN(C(=O)C1=C[C@@H](O)[C@@H](O)[C@H](O)C1)CC2 | > 50 µM |  |

Continued, values first:

| IC50 [1] | inhibition [2] | Structure (SMILES) |
| --- | --- | --- |
| 26.8 µM |  | COc1cc(CN2CCc3cc(OC)c(OC4CCCC4)cc3C2)ccc1O |
| 43 µM |  | COc1cc2c(cc1OC1CCCC1)CN(Cc1ccccc1F)CC2 |
| 38.1 µM |  | COc1cc2c(cc1OC1CCCC1)CN(Cc1ccncc1)CC2 |
| 23.5 µM |  | COc1cc2c(cc1OC1CCCC1)CN(C(=O)c1ccccc1)CC2 |
| 37 µM |  | COc1cc2c(cc1OC1CCCC1)CN(C(=O)c1ccccc1OC)CC2 |
| 15.7 µM | 12.1% | COc1cc2c(cc1OC1CCCC1)CN(C(=O)c1ccncc1)CC2 |
